Experiments:
Format in all cases: in vivo
[1] = tested on: diet-induced obesity (DIO) mouse model; experiment: Weight loss effect on repeated co-administration with semaglutide in DIO mice; conditions: repeated co-administration with semaglutide over 18 days, versus single administration, FIGS. 1 and 2
Experimental: In a diet-induced obesity (DIO) mouse model where obesity was induced using a high-fat diet, the weight loss effect was measured over 18 days following repeated co-administration of semaglutide (a GLP-1 receptor agonist, trade name: Ozempic) and an MC4R agonist, N-((3S,5S)-1-((3S,4R)-1-(tert-butyl)-4-(4-chlorophenyl)pyrrolidine-3-carbonyl)-5-(morpholin-4-carbonyl)pyrrolidin-3-yl)-N-((1 S,4R)-4-methylcyclohexyl)isobutyramide hydrochloride obtained in Preparation Example (hereinafter referred to as ‘test compound’). Body weight measurements were taken once daily prior to the administration of the test substances, and changes in body weight compared to weight (D1) prior to the administration of the test substances were calculated and presented in FIGS. 1 and 2. By comparing the weight loss effect in the co-administration group to that in the single administration group, the effect of co-administration of a GLP-1 receptor agonist and the test compound was evaluated.

[2] = tested on: diet-induced obesity (DIO) mouse model; experiment: Combination study with PF-06882961 (danuglipron) in DIO mice: food intake, body weight, body fat mass, OGTT
Experimental: In a diet-induced obesity (DIO) mouse model where obesity was induced using a high-fat diet, changes in food intake and body weight were measured over 4 weeks of repeated co-administration of PF-06882961 (danuglipron), which is an oral GLP-1 receptor agonist, and the test compound, which is an MC4R agonist. Food intake and body weight were measured once daily prior to the administration of the test substances, and changes in body weight relative to weight (D1) prior to the administration of the test substances were calculated, with the results presented in FIGS. 5 and 6, respectively. Further, on the 28th day after the administration of the test substances, body fat mass and an oral glucose tolerance test (OGTT) were measured, with the results shown in FIGS. 7 and 8, respectively. Body fat mass was measured using a ^1H-Mini-spec system (LF-9011, Bruker Optics GmbH, Germany) and blood glucose was measured using GM9 (Analox Instruments Ltd., UK) with blood samples collected from the tail vein.

[3] = tested on: diet-induced obesity (DIO) mouse model; experiment: Comparative example: weight loss on co-administration of semaglutide with test compound or setmelanotide in DIO mice; conditions: repeated co-administration with semaglutide for 18 days, test compound 15 mg/kg/day, comparative compound 3 mg/kg/day, FIG. 4
Source text: In a diet-induced obesity (DIO) mouse model where obesity was induced using a high-fat diet, the weight loss effect was compared after 18 days of repeated co-administration of semaglutide (a GLP-1 receptor agonist, trade name: Ozempic) with either the test compound, which is an MC4R agonist, or setmelanotide (RM-493), which is a peptide MC4R agonist (hereinafter referred to as ‘comparative compound’). Dosages of the test compound and the comparative compound were selected based on the efficacious doses observed in single administration studies (test compound: 15 mg/kg/day, comparative compound: 3 mg/kg/day). Body weight measurements were taken once daily prior to the administration of the test substances, and changes in body weight after 18 days relative to weight (D1) prior to the administration of the test substances were calculated and presented in FIG. 4.

[4] = tested on: diet-induced obesity (DIO) mouse model; experiment: Reduction in liver/fat weight on repeated co-administration with semaglutide in DIO mice; conditions: after 3 weeks, FIG. 3
Experimental: In a diet-induced obesity (DIO) mouse model where obesity was induced using a high-fat diet, the effect of reduction in liver and fat weights was measured after 3 weeks of repeated co-administration of semaglutide (a GLP-1 receptor agonist, trade name: Ozempic) and the test compound, which is an MC4R agonist, with the results shown in FIG. 3.

## CC(C)C(=O)N([C@H]1C[C@@H](C(=O)N2CCOCC2)N(C(=O)[C@@H]2CN(C(C)(C)C)C[C@H]2c2ccc(Cl)cc2)C1)[C@H]1CC[C@@H](C)CC1.Cl [test compound, N-((3S,5S)-1-((3S,4R)-1-(tert-butyl)-4-(4-chlorophenyl)pyrrolidine-3-carbonyl)-5-(morpholine-4-carbonyl)pyrrolidin-3-yl)-N-((1s,4R)-4-methylcyclohexyl)isobutyramide hydrochloride]
[1]
  weight loss effect (change in body weight relative to D1): synergistic weight loss effect
[2]; co-administration with PF-06882961, day 28, 1H-Mini-spec, versus single administration, FIG. 7
  reduction in body fat mass: much greater reduction in body fat mass
[2]; co-administration with PF-06882961, day 28, oral glucose tolerance test, versus single administration, FIG. 8
  improvement in glucose tolerance (OGTT): improvement in glucose tolerance
[2]; repeated co-administration with PF-06882961 over 4 weeks (28 days), versus single administrations, FIG. 6
  weight loss effect (change in body weight relative to D1): synergistic weight loss effect
[2]; repeated co-administration with PF-06882961 over 28 days, versus single administrations, FIG. 5
  reduction in food intake: significant reduction in food intake
[3]
  weight loss effect (change in body weight after 18 days relative to D1): significant synergistic weight loss effect
[4]
  effect of reduction in fat weight: synergistic effect in reducing liver and fat weights
  effect of reduction in liver weight: synergistic effect in reducing liver and fat weights
